Assay: xn = mol fraction of the nth substance listed

[Cl-].c1ccc(C[P+](c2ccccc2)(c2ccccc2)c2ccccc2)cc1 + OCCO
Conditions	electrical conductivity [S/m]	viscosity [mPa·s]
293.15 K, 101 kPa, x1 = 0.083	0.191	60.6
303.15 K, 101 kPa, x1 = 0.08333	–	68.3
313.15 K, 101 kPa, x1 = 0.083	0.298	32.2
313.15 K, 101 kPa, x1 = 0.08333	–	54.2
323.15 K, 100 kPa, x1 = 0.0833	–	38.5
323.15 K, 101 kPa, x1 = 0.08333	–	41.8
333.15 K, 101 kPa, x1 = 0.08333	–	33
338.15 K, 101.3 kPa, x2 = 0.75	0.02	86
343.15 K, 100 kPa, x1 = 0.0833	–	24.6
343.15 K, 101 kPa, x1 = 0.08333	–	24.2
353.15 K, 101 kPa, x1 = 0.08333	–	20.7

[Cl-].c1ccc(C[P+](c2ccccc2)(c2ccccc2)c2ccccc2)cc1 + OCCOCCO
101 kPa, x2 = 0.875
Conditions	electrical conductivity [S/m]	viscosity [mPa·s]
313.15 K	0.0935	64.2
353.15 K	0.212	17.1

CCCC[N+](CCCC)(CCCC)CCCC.[Cl-] + OCCOCCOCCO
Conditions	electrical conductivity, 293.15 K [S/m]	electrical conductivity, 303.15 K [S/m]	electrical conductivity, 313.15 K [S/m]	electrical conductivity, 323.15 K [S/m]	electrical conductivity, 333.15 K [S/m]	viscosity, 293.15 K [mPa·s]	viscosity, 303.15 K [mPa·s]	viscosity, 313.15 K [mPa·s]	viscosity, 323.15 K [mPa·s]	viscosity, 333.15 K [mPa·s]
100 kPa, x1 = 0.1667	0.0683	0.099	0.141	0.196	0.268	126	82.6	55.6	38.4	27.1
100 kPa, x1 = 0.333	0.049	0.0739	0.109	0.156	0.219	277	179	119	81.4	56.8
101 kPa, x2 = 0.25	–	–	–	–	–	–	–	–	910	–

CC[n+]1ccn(C)c1.[Cl-] + OCCOCCOCCOCCO
viscosity [mPa·s], 101.3 kPa
Conditions	298.15 K	303.15 K	313.15 K	323.15 K	333.15 K
x2 = 0.3333	360	266	168	115	83
x2 = 0.5	138	114	83.8	62.7	48.7

CCCC[N+](CCCC)(CCCC)CCCC.[Cl-] + OC[C@@H](O)[C@@H](O)[C@H](O)[C@@H](O)CO + O
100 kPa, x1 = 0.1428, x2 = 0.1428
Conditions	electrical conductivity [S/m]	viscosity [mPa·s]
293.15 K	0.121	390
303.15 K	0.189	201
313.15 K	0.285	107
323.15 K	0.42	59.8
333.15 K	0.605	34.5

CCCC[N+](CCCC)(CCCC)CCCC.[Cl-] + Oc1ccccc1
Conditions	viscosity [mPa·s]
323.15 K, 100 kPa, x1 = 0.167	37.2

CCCC[n+]1ccn(C)c1.[Br-] + [Cl-].[Li+] + O
298.15 K, 100 kPa
Conditions	viscosity [mPa·s]
x2 = 0, x3 = 0.9487	2.21
x2 = 0.008492, x3 = 0.9402	2.41
x2 = 0.01695, x3 = 0.9318	2.56
x2 = 0.02496, x3 = 0.9237	2.73
x2 = 0.02656, x3 = 0.9221	2.81
x2 = 0.03322, x3 = 0.9155	3
x2 = 0.0408, x3 = 0.9079	3.21

— the CheMixHub ionic liquid set
